Experimental data as given in the NIST ThermoML archive (doi:10.1016/j.jct.2011.04.022).
Where “and” joins values, the source holds several entries; their conditions need not be identical. Identical values can stand only once. ± gives the expanded uncertainty stated by the source.

Assays:
[1] = Crystal, Calculated from knudsen effusion weight loss
[2] = molar enthalpy of vaporization or sublimation; conditions: 298.15 K; Crystal; Second Law analysis of vapor pressure data

With `Nc1ccccc1-n1cccc1` [1-(2-aminophenyl)pyrrole] the “vapor or sublimation pressure” value ([1]; 296.12 K) was 6.43e-05 ± 3.2e-06 kPa and 6.33e-05 ± 3.2e-06 kPa and 6.58e-05 ± 3.3e-06 kPa, the “vapor or sublimation pressure” value ([1]; 298.22 K) was 8.56e-05 ± 4.3e-06 kPa and 8.51e-05 ± 4.3e-06 kPa and 8.36e-05 ± 4.2e-06 kPa and the “vapor or sublimation pressure” value ([1]; 300.2 K) was 0.000112 ± 6e-06 kPa and 0.000108 ± 5e-06 kPa and 0.000107 ± 5e-06 kPa. For the same compound, the “vapor or sublimation pressure” value ([1]; 302.11 K) was 0.000137 ± 7e-06 kPa and 0.000144 ± 7e-06 kPa, the “vapor or sublimation pressure” value ([1]; 304.19 K) was 0.000179 ± 9e-06 kPa and 0.000182 ± 9e-06 kPa and 0.000178 ± 9e-06 kPa and the “vapor or sublimation pressure” value ([1]; 306.19 K) was 0.00024 ± 1.2e-05 kPa and 0.000228 ± 1.1e-05 kPa and 0.000227 ± 1.1e-05 kPa. For the same compound, the “vapor or sublimation pressure” value ([1]; 308.08 K) was 0.000301 ± 1.5e-05 kPa and 0.0003 ± 1.5e-05 kPa and 0.000297 ± 1.5e-05 kPa, the “vapor or sublimation pressure” value ([1]; 310.2 K) was 0.000388 ± 1.9e-05 kPa and 0.000386 ± 1.9e-05 kPa and 0.000377 ± 1.9e-05 kPa and the “vapor or sublimation pressure” value ([1]; 312.2 K) was 0.000503 ± 2.5e-05 kPa and 0.000481 ± 2.4e-05 kPa and 0.00048 ± 2.4e-05 kPa. The “vapor or sublimation pressure” value ([1]; 314.11 K) was 0.000643 ± 3.2e-05 kPa and 0.000635 ± 3.2e-05 kPa and 0.000623 ± 3.1e-05 kPa, the “vapor or sublimation pressure” value ([1]; 316.18 K) was 0.000816 ± 4.1e-05 kPa and 0.000808 ± 4e-05 kPa and 0.000788 ± 3.9e-05 kPa and the “vapor or sublimation pressure” value ([1]; 318.18 K) was 0.001059 ± 0.00011 kPa and 0.001011 ± 0.0001 kPa and 0.000991 ± 5e-05 kPa. The molar enthalpy [2] was 23.61 ± 0.191 kcal/mol.
